From PubChem BioAssay AID2060356 (Molecular Pharmacology Branch, DTP, NCI, 2025)
Values joined by “and” are separate entries in the source; they are usually repeats but may differ in a detail not shown here. Equal values may be shown once.

Test system: PDC tumor spheroids with HUVEC/MSC, viability
Assay: Anticancer human tumor 439559-082-T-J2-PDC patient-derived colon adenocarcinoma cell line growth inhibition [TAK]
Conditions: for viability, T/C: stronger effect = lower value
Description: Combinatorial screen of targeted agents with TAK-243 and ipatasertib in multi-cell type tumor spheroids
A high-throughput screen of multi-cell type tumor spheroids was designed to identify active combinations of targeted small molecules and TAK-243 or ipatasertib. Complex spheroids include a stromal component modeled by human endothelial cells (HUVEC) and fibroblasts modeled by human mesenchymal stem cells (MSCs). The concentration ranges selected for each drug and investigational agent were based upon clinically achievable concentrations if the clinical Cmax of the agent was known.
Compounds. The drugs and investigational agents: TAK-243 (785004), ipatasertib (767898), everolimus (733504), selumetinib (741078), bortezomib (756655), trametinib (758246), ixazomib (758254), vemurafenib (761431), dabrafenib (764134), sapanisertib (764658), alpelisib (765974), and copanlisib (816437), were obtained from the National Cancer Institute (NCI) Developmental Therapeutics Program Chemical Repository. The FDA-approved anticancer drug set is available from the NCI Developmental Therapeutics Program. […] The stock solutions were prepared in dimethyl sulfoxide (DMSO, Sigma-Aldrich, St. Louis, MO, cat. D2650) at 800-fold the tested concentration and stored at -70 degrees C prior to their use. All drugs and investigational agents were tested over a range starting from a high concentration at or near the clinical Cmax and decreasing in half-log increments. If the clinical Cmax for an agent had not been determined, the highest concentration tested was 10 microM.
NCI60 Cell Culture. NCI60 cell lines were obtained from the NCI Developmental Therapeutics Program Tumor Repository. For each lot of cells, the Repository performed Applied Biosystems AmpFLSTR Identifiler testing with PCR amplification to confirm consistency with the published Identifier STR profile for each cell line. Cells were kept in continuous culture for no more than 20 passages. The optimal seeding densities for each of the cell lines at each time point assessed were determined prior to performing the concentration response studies. Briefly, the NCI60 human tumor lines were grown as monolayers in RPMI 1640 medium supplemented with 10% FBS and 2 mmol/L L-glutamine.
An additional 2 lines were from the NCI60 cell line panel including melanomas, MALME-3M and SK-MEL-2. Pooled donor human umbilical vein endothelial cells (HUVEC, Lonza, cat. CC-2519) and human mesenchymal stem cells (hMSC, Lonza, cat. PT-2501) were purchased from Lonza (Walkersville, MD).
PDMR cell lines were grown in complete medium (DC medium): Dulbecco's modified Eagle's medium (DMEM)/F12 supplemented with 5% fetal bovine serum (FBS), 2 mM L-glutamine, 100 U/mL penicillin and 100 µg/ml streptomycin, 0.4 µg/ml hydrocortisone, 10 ng/ml epidermal growth factor (EGF) recombinant human protein, 24 µg/mL adenine, and 0.1 mg/mL primocin. During culture from frozen stock vials, PDMR cells were cultured in the same medium containing 10 µM Y-27632 (see Table 3). The PDCs were cultured in complete DMEM/F12 media without 10 microM Y-27632 dihydrochloride for at least two passages prior to the screen. The pooled donor HUVEC and hMSC were cultured in endothelial cell growth medium 2 (PromoCell, Heidelberg, Germany, cat. C-22011) and mesenchymal stem cell growth medium 2 (PromoCell, cat. C-28009), respectively. For all experiments, HUVEC and hMSC were used at passages </=5.
For the pre-screen, cell seeding densities were determined from a titration spanning the range from 5,000 to 313 cells per well. The mct-spheroids including 60% malignant cells, 25% HUVEC and 15% MSC dispensed as a mixture into U-bottom Ultra-Low Attachment 384-well plates (Corning, NY)
High-throughput Drug Combination Screening.
Prior to their inoculation into 384-well plates, malignant cells, HUVEC, and hMSC were removed from T flasks using TrypLE express (Thermo Fisher Scientific, cat. 12605036) and harvested by centrifugation for 5 min at 233 x g. […]
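Also: spheroids exposed to drugs for seven days before readout.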

COc1c(OCCCN2CCOCC2)ccc2c3n(c(=NC(=O)c4cnc(N)nc4)nc12)CCN3
viability, T/C (compound 0.00316 µM): 103% and 116% | viability, T/C (compound 0.01 µM): 91% and 95.7% | viability, T/C (compound 0.0316 µM): 82.8% and 82.9% | viability, T/C (compound 0.1 µM): 75.8% and 72.9% | viability, T/C (compound 0.316 µM): 68.9% and 70.3% | viability, T/C (compound 1 µM): 66% and 72.5% | IC50 (curve of compound): > 1000 nM

COc1c(OCCCN2CCOCC2)ccc2c3n(c(=NC(=O)c4cnc(N)nc4)nc12)CCN3 + CC(C)NCC(C(=O)N1CCN(c2ncnc3c2C(C)CC3O)CC1)c1ccc(Cl)cc1
IC50 (curve of first compound, second compound 0.3 µM): > 1000 nM | IC50 (curve of first compound, second compound 0.949 µM): > 1000 nM | IC50 (curve of first compound, second compound 3 µM): > 1000 nM | IC50 (curve of first compound, second compound 9.49 µM): > 1000 nM | IC50 (curve of first compound, second compound 30 µM): > 1000 nM | viability, T/C (second compound 0.3 µM, first compound 0.00316 µM): 98.6% | viability, T/C (second compound 0.3 µM, first compound 0.01 µM): 89.5% | viability, T/C (second compound 0.3 µM, first compound 0.0316 µM): 71.3% | viability, T/C (second compound 0.3 µM, first compound 0.1 µM): 73.3% | viability, T/C (second compound 0.3 µM, first compound 0.316 µM): 61.8% | viability, T/C (second compound 0.3 µM, first compound 1 µM): 66.9% | viability, T/C (second compound 0.949 µM, first compound 0.00316 µM): 98.5% | viability, T/C (second compound 0.949 µM, first compound 0.01 µM): 91.5% | viability, T/C (second compound 0.949 µM, first compound 0.0316 µM): 76.2% | viability, T/C (second compound 0.949 µM, first compound 0.1 µM): 72.4% | viability, T/C (second compound 0.949 µM, first compound 0.316 µM): 66.8% | viability, T/C (second compound 0.949 µM, first compound 1 µM): 65.8% | viability, T/C (second compound 3 µM, first compound 0.00316 µM): 85.1% | viability, T/C (second compound 3 µM, first compound 0.01 µM): 88.4% | viability, T/C (second compound 3 µM, first compound 0.0316 µM): 75.5% | viability, T/C (second compound 3 µM, first compound 0.1 µM): 71.3% | viability, T/C (second compound 3 µM, first compound 0.316 µM): 66.8% | viability, T/C (second compound 3 µM, first compound 1 µM): 69.7% | viability, T/C (second compound 9.49 µM, first compound 0.00316 µM): 90.6% | viability, T/C (second compound 9.49 µM, first compound 0.01 µM): 80.8% | viability, T/C (second compound 9.49 µM, first compound 0.0316 µM): 80.9% | viability, T/C (second compound 9.49 µM, first compound 0.1 µM): 73.7% | viability, T/C (second compound 9.49 µM, first compound 0.316 µM): 67.8% | viability, T/C (second compound 9.49 µM, first compound 1 µM): 70.9% | viability, T/C (second compound 30 µM, first compound 0.00316 µM): 83.9% | viability, T/C (second compound 30 µM, first compound 0.01 µM): 79% | viability, T/C (second compound 30 µM, first compound 0.0316 µM): 72.6% | viability, T/C (second compound 30 µM, first compound 0.1 µM): 68.9% | viability, T/C (second compound 30 µM, first compound 0.316 µM): 64.5% | viability, T/C (second compound 30 µM, first compound 1 µM): 72.7%

COC1CC2CCC(C)C(O)(O2)C(=O)C(=O)N2CCCCC2C(=O)OC(C(C)CC2CCC(OCCO)C(OC)C2)CC(=O)C(C)C=C(C)C(O)C(OC)C(=O)C(C)CC(C)C=CC=CC=C1C (centres undefined)
viability, T/C (compound 0.000316 µM): 110% and 103% | viability, T/C (compound 0.001 µM): 97.7% and 98.1% | viability, T/C (compound 0.00316 µM): 90.7% and 89.7% | viability, T/C (compound 0.01 µM): 82.7% and 90.2% | viability, T/C (compound 0.0316 µM): 90.9% and 86% | viability, T/C (compound 0.1 µM): 91.7% and 92.3% | IC50 (curve of compound): > 100 nM
